Assay results as given in US7098219B2, “Inhibitors of cellular efflux pumps of microbes” (Wockhart Limited, priority 2000, dated 2006).

Each compound was assayed on Staphylococcus aureus 1199 B NorA+ (assay: not given). Conditions: combination with ciprofloxacin, broth microdilution checkerboard, 35° C. 20 hours; FIC index ≦0.5 synergistic, 0.5–2.0 additive, >2.0 antagonistic.
Assay type: cell-based
Text: Testing method for inhibition of the efflux pump of Staphylococcus aureus 1199B NorA^+
[…]. Victor Lorian, Md., Fourth edition 1996, pp 333–338).
In short, the assay involves broth microdilution method performed as recommended by the National Committee for Clinical Laboratory Standards (NCCLS) 1997 (Methods for Dilution of Antimicrobial Susceptibility Tests for Bacteria that Grow Aerobically, Fourth edition; Approved Standard, NCCLS document M7-A4, vol. 17, No. 2). The test organism used for the assay is Staphylococcus aureus 1199 B NorA^+.
[…]. Stock solutions of the efflux pump inhibitors tested are prepared in dimethyl sulfoxide (DMSO) at a final concentration of 5 mg/ml. Stock solutions are further diluted in Mueller Hinton Broth as per the need of the assay. Ciprofloxacin is dissolved in water.
The checkerboard assay is performed in microtiter plates. […] The efflux pump inhibitor is diluted in the Y-axis, each row containing an equal concentration of efflux pump inhibitor. The result of these manipulations is that each well of the microtiter plate contains a unique combination of concentrations of the two agents. Bacterial inoculum is added at 5×10^5 CFU/ml. Microtiter plates are incubated at 35° C. for 20 hours. Reading is done by visibly noting turbidity and confirmed using a microtiter plate reader (Molecular Devices). The FIC index is calculated as
(A) is the concentration of the experimental efflux pump inhibitor in the well that is the lowest inhibitory concentration in the Y-axis. (MICA) is the MIC of Staphylococcus aureus to experimental efflux pump inhibitor alone. FICA is the fractional inhibitory concentration of an experimental efflux pump inhibitor. […] (Antimicrobial Combination In Antibiotics in Laboratory Medicine, Ed. Victor Lorian, Md., Fourth edition 1996, pp 333–338).

Row | Compound | FIC INDEX
1 | Nc1c(F)c(N2CCOCC2)c(F)c2c1c(=O)c(C(=O)O)cn2-c1ccccc1C(F)(F)F [Example 40 (NorA), 5-Amino-1-(2′-trifluoromethylphenyl)-6,8-difluoro-1,4-dihydro-7-(morpholin-1-yl)-4-oxo-quinoline-3-carboxylic acid] | 0.314
2 | CC1COCC(C)N1c1c(F)c(N)c2c(=O)c(C(=O)O)cn(-c3ccccc3C(F)(F)F)c2c1F (centres unmarked) [Example 41 (NorA), 5-Amino-1-(2′-trifluoromethylphenyl)-6,8-difluoro-1,4-dihydro-7-(3′,5′-dimethylmorpholin-1-yl)-4-oxo-quinoline-3-carboxylic acid] | 0.384
3 | CC1CN(c2c(F)c(N)c3c(=O)c(C(=O)O)cn(-c4ccccc4C(F)(F)F)c3c2F)CC(C)N1 (centres unmarked) [Example 42 (NorA), 5-Amino-1-(2′-trifluoromethylphenyl)-6,8-difluoro-1,4-dihydro-7-(3′,5′-dimethylpiperizine-1-yl)-4-oxo-quinoline-3-carboxylic acid] | 0.314
4 | Nc1c(F)c(N2CCC(N)C2)c(F)c2c1c(=O)c(C(=O)O)cn2-c1ccc(C(F)(F)F)cc1 (centres unmarked) [Example 43 (NorA), 5-Amino-1-(4′-trifluoromethylphenyl)-6,8-difluoro-1,4-dihydro-7-(3′-aminopyrrolidin-1-yl)-4-oxo-quinoline-3-carboxylic acid] | 0.564
5 | CCNC1CCN(c2cc3c(cc2F)c(=O)c(C(=O)O)cn3-c2ccc(F)cc2)CC1 [Example 44 (NorA)] | 0.189
6 | CC1CC(C)CN(c2cc3c(cc2F)c(=O)c(C(=O)O)cn3-c2ccc(F)cc2F)C1 (centres unmarked) [Example 45 (NorA), 1-(2′,4′-Difluorophenyl)-6-fluoro-1,4-dihydro-7-(3′,5′-dimethylpiperidin-1-yl)-4-oxo-quinoline-3-carboxylic acid] | 0.192
7 | CC1CC(O)CN1c1c(F)c(N)c2c(=O)c(C(=O)O)cn(-c3ccc(F)cc3F)c2c1F (centres unmarked) [Example 46 (NorA), 5-Amino-1-(2′,4′-difluorophenyl)-6,8-difluoro-1,4-dihydro-7-(3′-hydroxy-5′-methylpyrrolidin-1-yl)-4-oxo-quinoline-3-carboxylic acid] | 0.314
8 | CC1(C)CN(c2c(F)c(N)c3c(=O)c(C(=O)O)cn(-c4ccc(F)cc4F)c3c2F)CCN1 [Example 47 (NorA), 5-Amino-1-(2′,4′-difluorophenyl)-6,8-difluoro-1,4-dihydro-7-(3′,3′-dimethylpiperazin-1-yl)-4-oxo-quinoline-3-carboxylic acid] | 0.375
9 | CCOC(=O)NC1CCN(c2nc3c(cc2F)c(=O)c(C(=O)O)cn3C2CC2)C1 (centres unmarked) [Example 48 (NorA), 1-Cyclopropyl-6-fluoro-1,4-dihydro-7-{(3′-aminoethoxycarbonyl)pyrrolidin-3-yl}-4-oxo-naphthyridine-3-carboxylic acid] | (3-ethoxycarbonylamino)pyrrolidin-3-yl 0.314
10 | CCOC(=O)c1cn(-c2ccc(F)cc2F)c2nc(NC3C4CN(Cc5ccccc5)CC43)c(F)cc2c1=O (centres unmarked) [Example 51 (NorA), Ethyl-1-(2′,4′-difluorophenyl)-6-fluoro-1,4-dihydro-7-{[1∝,5∝,6∝]-3-N-benzyl-3-azabicyclo[3.1.01]hex-6-yl-amino}-4-oxo-1,8-naphthyridine-3-carboxylate] | 0.185
11 | CCOC(=O)c1cn(-c2ccc(F)cc2F)c2nc(N3CCc4c(cnn4-c4ccccc4)C3)c(F)cc2c1=O [Example 52 (NorA), Ethyl 6-fluoro-7-[1-Phenyl-4,5,6,7-tetrahydropyrazolo[4.3-c]pyridin-1-yl]-1-(2,4-difluorophenyl)-4-oxo-1,4-dihydro-1,8-naphthyridine-3-carboxylate] | 0.100
12 | C[C@H]1CCc2c(N3CCC(C(N)=O)CC3)c(F)cc3c(=O)c(C(=O)O)cn1c23 [Example 53 (NorA), (S)-(−)-9-Fluoro-6,7-dihydro-8-(4′-carboxamidopineridin-1-yl)-5-methyl-1-oxo-1H,5H-benzo[i,j]quinolizine-2-carboxylic acid] | 0.192
13 | C[C@H]1CCc2c(N3CCC(O)C(C)(C)C3)c(F)cc3c(=O)c(C(=O)O)cn1c23 (stereo partly drawn) [Example 55 (NorA), S-(−)-9-Fluoro-6,7-dihydro-8-(4′-hydroxy-3′,3′-dimethylpiperidin-1-yl)-5-methyl-1-oxo-1H,5H-benzo[i,j]quinolizine-2-carboxylic acid] | 0.378
14 | C[C@H]1CCc2c(N3CCC(O)CC3)c(F)cc3c(=O)c(C(=O)OC4CCN(C)CC4)cn1c23 [Example 56 (NorA), (S)-(−)-N-methylpiperidino-9-fluoro-6,7-dihydro-8-(4′-hydroxypiperidin-1-yl)-5-methyl-1-oxo-1H,5H-benzo[i,j]quinolizine-2-carboxylic acid] | 0.180
15 | CCOC(=O)COC(=O)c1cn2c3c(c(N4CCC(O)CC4)c(F)cc3c1=O)CC[C@H]2C [Example 57 (NorA), Ethoxy carbonylmethyl (R)-(+)-9-fluoro-6,7-dihydro-8-(4′-hydroxypiperidin-1-yl)-5-methyl-1-oxo-1H,5H-benzo[i,j]quinolizine-2-carboyxlate] | 0.400
16 | (S)-(−)-9-Fluoro-6,7-dihydro-8-(4′-hydroxypiperidin-1-yl)-5-methyl-1-oxo-1H,5H-benzo[i,j]quinolizine-2-carboxylic acid L-aryinine salt [Example 54 (NorA)] | 0.314
17 | N-3-azabycyclo{7-(1-(2,4-difluorophenyl)-6-fluoro-1,4-dihydro-4-oxo-1,8-naphthyridine-3-carboxylic acid)}-[1∝,5∝,6∝]-N-6-amino-{7-1-(2,4-difluorophenyl)-6-fluoro-1,4-dihydro-4-oxo-1,8-naphthyridine-3-carboxylic acid)}-3.1.0]hexane [Bis compound 9] | 0.314

What follows are compounds tested on Mef Efflux Pump of Streptococcus pneumoniae 3514 and Streptococcus pyogenes 26-00 (assay: Two plate diffusion assay for macrolide (Mef) efflux pump inhibitors, azithromycin plate versus control plate). Conditions: zone of inhibition in antibiotic plate (method: azithromycin 0.5 mcg/ml; footnote: levofloxacin) minus water control plate; strain not given.
Assay type: cell-based

Row | Compound | Difference in Zone diameter Z1 (mm)
18 | 1-Cyclopropyl-6-fluoro-8-methoxy-1,4-dihydro-7-{-4′-(t-butoxycarbonyl (L)-Ala-Ala)amino 3′,3′-dimethylpiperidin-1-yl}-4-oxo-quinoline-3-carboxylic acid [Example 34 (Mef)] | 8 mm
19 | CC1CCc2c(N3CC[C@@H](O)[C@H](C)C3)ccc3c(=O)c(C(=O)O)cn1c23 (mixture of isomers) [Example 41 (Mef), (RS)-(±)-6,7-dihydro-8-(trans-4′-hydroxy-3′-methylpiperidin-1-yl)-5-methyl-1-oxo-1H,5H-benzo[i,j]quinolizine-2-carboxylic acid] | 10 mm
20 | CC1CCc2c(N3CCC(O)C(C)(C)C3)ccc3c(=O)c(C(=O)O)cn1c23 (racemic) [Example 43 (Mef), (RS)-(±)-6,7-dihydro-8-(4′-hydroxy-3′,3′-dimethylpiperidin-1-yl)-5-methyl-1-oxo-1H,5H-benzo[i,j]quinolizine-2-carboxylic acid] | 10 mm
21 | CNC1CCN(c2c(F)c(N)c3c(=O)c(C(=O)O)cn(C4CC4)c3c2OC)CC1(C)C (centres unmarked) [Example 2 (Mef), 5-Amino-1-cyclopropyl-6-fluoro-8-methoxy-1,4-dihydro-7-{4′-(methylamino)-3′,3′-dimethylpiperidin-1-yl}-4-oxo-quinoline-3-carboxylic acid] | 8 mm
22 | COc1c(N2CCC(N)C(C)(C)C2)c(F)cc2c(=O)c(C(=O)OC(C)C)cn(C3CC3)c12 (centres unmarked) [Example 3 (Mef), i-Propyl 1-cyclopropyl-6-fluoro-8-methoxy-1,4-dihydro-7-(4′-amino-3′,3′-dimethyl-piperidin-1-yl)-4-oxo-quinoline-3-carboxylate] | 11 mm
23 | CCCCOC(=O)c1cn(C2CC2)c2c(OC)c(N3CCC(N)C(C)(C)C3)c(F)cc2c1=O (centres unmarked) [Example 4 (Mef), n-Butyl 1-cyclopropyl-6-fluoro-8-methoxy-1,4-dihydro-7-(4′-amino-3′,3′-dimethyl-piperidin-1-yl)-4-oxo-quinoline-3-carboxylate] | 11 mm
24 | CCOC(=O)COC(=O)c1cn(C2CC2)c2c(OC)c(N3CCC(N)C(C)(C)C3)c(F)cc2c1=O (centres unmarked) [Example 5 (Mef), Ethoxycarbony methyl 1-Cyclopropyl-6-fluoro-8-methoxy-1,4-dihydro-7-(4′-amino-3′,3′-dimethylpiperidin-1-yl)-4-oxo-quinoline-3-carboxylate] | 13 mm
25 | COc1c(N2CCC(NC(=O)OC(C)(C)C)C(C)(C)C2)c(F)cc2c(=O)c(C(=O)OCc3ccccc3)cn(C3CC3)c12 (centres unmarked) [Example 6 (Mef)] | 13 mm
26 | COc1c(N2CCC(NC(=O)[C@H](C)NC(=O)OC(C)(C)C)C(C)(C)C2)c(F)cc2c(=O)c(C(=O)O)cn(C3CC3)c12.Cl (stereo partly drawn) [Example 7 (Mef), 1-Cyclopropyl-6-fluoro-8-methoxy-1,4-dihydro-7-{4′-N-(t-butoxycarbonyl-L-alanyl)-amino-3′,3′-dimethylpiperidin-1-yl}-4-oxo-quinoline-3-carboxylic acid hydrochloride] | 7 mm
